Test results: ChEMBL document CHEMBL2034827, “Identification of novel antimalarial chemotypes via chemoinformatic compound selection methods for a high-throughput screening program against the novel malarial target, PfNDH2: increasing hit rate via virtual screening methods” (J Med Chem, 2012)

Key:
Plasmodium falciparum = test: Antimalarial activity against blood stage form of Plasmodium falciparum 3D7 infected in human erythrocytes after 48 hrs by SYBR Green-based fluorometry; assay type: functional, organism-based; settings: 3D7, 48 h
[1] = Inhibition of recombinant Plasmodium falciparum NDH2 expressed in Escherichia coli ANN0222 by spectrophotometry

| Compound | IC50 (Plasmodium falciparum) | IC50 [1] |
| --- | --- | --- |
| CC(C)(Cc1cc(=O)c2ccccc2[nH]1)C1CCCCC1 | 3800 nM | 78 nM |
| CCn1cc(C(=O)NCc2ccc(Cl)cc2)c(=O)c2cc(F)c(N3CCN(C(=O)c4ccco4)CC3)cc21 | 5000 nM | 295 nM |
| O=C1NC(=O)N(C2CCCCC2)C(=O)/C1=C/c1c(-c2ccccc2)[nH]c2ccccc12 | 5560 nM | 512 nM |
| CSc1nc2cc(Oc3ccc(Cl)c4ccccc34)c(Cl)cc2[nH]1 | 2080 nM | 1040 nM |
| O=C(Nc1ccc(F)c(F)c1)C1CCC(Cn2cnc3ccccc3c2=O)CC1 (stereo unspecified) | 2080 nM | 1360 nM |
| CCCCCCCCCCCCc1cc(=O)c2ccccc2n1O | – | 70 nM |
